The values below come from patent US9174964B2, “AMPK-activating piperidinyloxy-substituted 2,3-dihydro-1H-indene-1-amine compounds and pharmaceutical compositions including the same” (Rigel Pharmaceuticals, Inc., priority 2007, dated 2015).

For orientation: EC50 means the concentration that produces a half-maximal response. A higher EC50 goes with a need for much substance.

This experiment has as its target AMPK. Put plainly: AMPK activation, enzyme-linked immunosorbent assay. The experiment is classed as biochemical. The settings on record: ELISA. As for the experimental part: Compounds 1-50 of Table 1 were assayed for their ability to activate AMPK using an enzyme-linked immunosorbent assay.
Compounds 51-60 of Table 1 were assayed for their ability to activate AMPK using an enzyme-linked immunosorbent assay.
Compounds 61-131 of Table 1 were assayed for their ability to activate AMPK using an enzyme-linked immunosorbent assay.
Compounds 137-141 and 143-155 of Table 1 were assayed for their ability to activate AMPK using an enzyme-linked immunosorbent assay.
Compounds 156-160 of Table 1 were assayed for their ability to activate AMPK using an enzyme-linked immunosorbent assay.
Background: An ELISA detects its analyte on a solid surface through an enzyme-linked reagent.

Where a name gives a salt, the structure may show the parent alone.

Compound `O=S(=O)(NC1CCNCC1)c1ccc(OC2CCN(c3ccc(C(F)(F)F)cc3)CC2)nc1` [Compound 55, N-(piperidin-4-yl)-6-(1-(4-(trifluoromethyl)phenyl)piperidin-4-yloxy)pyridine-3-sulfonamide] returned a concentration giving a half-maximal response (EC50) (Table 3, AMPK activation) of 1000 to 5000 nM. Consider `O=C(NC1CCN(Cc2ccccc2)CC1)c1cc2cc(OC3CCN(Cc4ccc(F)c(F)c4)CC3)ccc2o1` [Compound 74, N-(1-benzylpiperidin-4-yl)-5-(1-(3,4-difluorobenzyl)piperidin-4-yloxy)benzofuran-2-carboxamide], for which the concentration for a half-maximal effect (EC50) (Table 4, AMPK activation) lay within 100 to 500 nM.

In turn, `O=S(=O)(NC1CCN(Cc2ccncc2)CC1)c1ccc(OC2CCN(c3ccc(C(F)(F)F)cc3)CC2)nc1` [Compound 51, N-(1-(pyridin-4-ylmethyl)piperidin-4-yl)-6-(1-(4-(trifluoromethyl)phenyl)piperidin-4-yloxy)pyridine-3-sulfonamide] displayed a 50% effective concentration (EC50) (Table 3, AMPK activation) of 100 to 500 nM.

Consider `O=C(NC1CCN(Cc2c[nH]cn2)CC1)c1ccc(OC2CCN(c3ccc(C(F)(F)F)cc3)CC2)cn1` [Compound 48, N-(1-((1H-imidazol-4-yl)methyl)piperidin-4-yl)-5-(1-(4-(trifluoromethyl)phenyl)piperidin-4-yloxy)picolinamide], for which the concentration for a half-maximal effect (EC50) (Table 2, AMPK activation) fell in the range of 1000 to 5000 nM. As to `CC(C)(C)OC(=O)N1CCC(NC(=O)c2cc3cc(OC4CCN(c5ccc(C(F)(F)F)cc5)CC4)ccc3s2)CC1` [Compound 149, tert-butyl 4-(5-(1-(4-(trifluoromethyl)phenyl)piperidin-4-yloxy)benzo[b]thiophene-2-carboxamido)piperidine-1-carboxylate], the EC50 (Table 5, AMPK activation) is < 100 nM.

`CN(C(=O)c1cc2cc(OC3CCN(c4ccc(C(F)(F)F)cc4)CC3)ccc2o1)C1CCN(Cc2ccncc2)CC1` [Compound 104, N-methyl-N-(1-(pyridin-4-ylmethyl)piperidin-4-yl)-5-(1-(4-(trifluoromethyl)phenyl)piperidin-4-yloxy)benzofuran-2-carboxamide] showed an EC50 (Table 4, AMPK activation) of 100 to 500 nM.

As for `COC(=O)c1ccc(CN2CCC(NC(=O)c3ccc(OC4CCN(c5ccc(C(F)(F)F)cc5)CC4)cn3)CC2)cc1` [Compound 8, methyl 4-((4-(5-(1-(4-(trifluoromethyl)phenyl)piperidin-4-yloxy)picolinamido)piperidin-1-yl)methyl)benzoate], the half-maximal effective concentration (EC50) (Table 2, AMPK activation) is < 100 nM. In turn, `CC(C)(C)OC(=O)N1CCC(NC(=O)c2sc3cc(OC4CCN(c5ccc(C(F)(F)F)cc5)CC4)ccc3c2Cl)CC1` [Compound 147, tert-butyl 4-(3-chloro-6-(1-(4-(trifluoromethyl)phenyl)piperidin-4-yloxy)benzo[b]thiophene-2-carboxamido)piperidine-1-carboxylate] returned a concentration for a half-maximal effect (EC50) (Table 5, AMPK activation) of 1000 to 50000 nM. As for `O=S(=O)(NC1CCN(Cc2ccc(C(F)(F)F)cc2)CC1)c1ccc(OC2CCN(c3ccc(C(F)(F)F)cc3)CC2)nc1` [Compound 58, N-(1-(4-(trifluoromethyl)benzyl)piperidin-4-yl)-6-(1-(4-(trifluoromethyl)phenyl)piperidin-4-yloxy)pyridine-3-sulfonamide], the concentration for a half-maximal effect (EC50) (Table 3, AMPK activation) was < 100 nM. The compound `O=C(NC1CCN(Cc2ccc(F)cc2)CC1)c1ccnc(OC2CCN(c3ccc(C(F)(F)F)cc3)CC2)c1` [Compound 22, N-(1-(4-fluorobenzyl)piperidin-4-yl)-2-(1-(4-(trifluoromethyl)phenyl)piperidin-4-yloxy)isonicotinamide] displayed an EC50 (Table 2, AMPK activation) of 1000 to 5000 nM. In turn, `N#Cc1ccc(CN2CCC(Oc3ccc4oc(C(=O)NC5CCN(Cc6ccccc6)CC5)cc4c3)CC2)cc1` [Compound 114, N-(1-benzylpiperidin-4-yl)-5-(1-(4-cyanobenzyl)piperidin-4-yloxy)benzofuran-2-carboxamide] came in with an EC50 (Table 4, AMPK activation) of 100 to 500 nM. In the case of `Cc1c(C(=O)NC2CCNCC2)oc2cc(OC3CCN(c4ccc(C(F)(F)F)cc4)CC3)ccc12` [Compound 62, 3-methyl-N-(piperidin-4-yl)-6-(1-(4-(trifluoromethyl)phenyl)piperidin-4-yloxy)benzofuran-2-carboxamide], under “Table 4, AMPK activation”, the concentration giving a half-maximal response (EC50) was in the range of 10000 to 50000 nM.

Regarding `O=C(NC1CCN(Cc2ccncc2)CC1)c1ccc(OC2CCN(c3ccc(C(F)(F)F)cc3)CC2)cn1` [Compound 3, N-(1-(pyridin-4-ylmethyl)piperidin-4-yl)-5-(1-(4-(trifluoromethyl)phenyl)piperidin-4-yloxy)picolinamide], the EC50 (Table 2, AMPK activation) is < 100 nM.

`O=C(NC1CCN(Cc2cccnc2)CC1)c1sc2cc(OC3CCN(c4ccc(C(F)(F)F)cc4)CC3)ccc2c1Cl` [Compound 152, 3-chloro-N-(1-(pyridin-3-ylmethyl)piperidin-4-yl)-6-(1-(4-(trifluoromethyl)phenyl)piperidin-4-yloxy)benzo[b]thiophene-2-carboxamide]: under “Table 5, AMPK activation”, the EC50 is < 100 nM.

`Cc1c(C(=O)NC2CCN(Cc3cccc(C#N)c3)CC2)oc2cc(OC3CCN(c4ccc(C(F)(F)F)cc4)CC3)ccc12` [Compound 66, N-(1-(3-cyanobenzyl)piperidin-4-yl)-3-methyl-6-(1-(4-(trifluoromethyl)phenyl)piperidin-4-yloxy)benzofuran-2-carboxamide]: the half-maximal effective concentration (EC50) (Table 4, AMPK activation) was < 100 nM. In the case of `O=C(NC1CCN(Cc2cccnc2)CC1)c1cc2ccc(OC3CCN(c4ccc(OC(F)(F)F)cc4)CC3)cc2o1` [Compound 95, N-(1-(pyridin-3-ylmethyl)piperidin-4-yl)-6-(1-(4-(trifluoromethoxy)phenyl)piperidin-4-yloxy)benzofuran-2-carboxamide], where the note is “Table 4, AMPK activation”, the half-maximal effective concentration (EC50) is < 100 nM.

In the case of `Cc1c(C(=O)NC2CCN(Cc3ccccc3C#N)CC2)oc2cc(OC3CCN(c4ccc(C(F)(F)F)cc4)CC3)ccc12` [Compound 67, N-(1-(2-cyanobenzyl)piperidin-4-yl)-3-methyl-6-(1-(4-(trifluoromethyl)phenyl)piperidin-4-yloxy)benzofuran-2-carboxamide], for the setting “Table 4, AMPK activation”, the EC50 is < 100 nM. As to `N#Cc1ccc(CN2CCC(NC(=O)c3cc4ccc(OC5CCN(c6ccc(OC(F)(F)F)cc6)CC5)cc4o3)CC2)cc1` [Compound 89, N-(1-(4-cyanobenzyl)piperidin-4-yl)-6-(1-(4-(trifluoromethoxy)phenyl)piperidin-4-yloxy)benzofuran-2-carboxamide], the EC50 (Table 4, AMPK activation) was < 100 nM.

Under “Table 4, AMPK activation”, `O=C(NC1CCN(Cc2ccccn2)CC1)c1cc2ccc(OC3CCN(c4ccc(OC(F)(F)F)cc4)CC3)cc2o1` [Compound 92, N-(1-(pyridin-2-ylmethyl)piperidin-4-yl)-6-(1-(4-(trifluoromethoxy)phenyl)piperidin-4-yloxy)benzofuran-2-carboxamide] showed an EC50 of 500 to 1000 nM. Where the note is “Table 4, AMPK activation”, `O=C(NC1CCNCC1)c1cc2ccc(OC3CCN(c4ccc(C(F)(F)F)cc4)CC3)cc2o1` [Compound 84, N-(piperidin-4-yl)-6-(1-(4-(trifluoromethyl)phenyl)piperidin-4-yloxy)benzofuran-2-carboxamide hydrochloride] registered a concentration for a half-maximal effect (EC50) of 10000 to 50000 nM. For `O=C(N[C@@H]1CCN(C(=O)c2ccncc2)C1)c1cc2cc(OC3CCN(c4ccc(C(F)(F)F)cc4)CC3)ccc2o1` [Compound 125, (R)-N-(1-isonicotinoylpyrrolidin-3-yl)-5-(1-(4-(trifluoromethyl)phenyl)piperidin-4-yloxy)benzofuran-2-carboxamide], under “Table 4, AMPK activation”, the EC50 lay within 1000 to 10000 nM. For the setting “Table 2, AMPK activation”, `N#Cc1ccc(CN2CCC(NC(=O)c3ccc(OC4CCN(c5ccc(C(F)(F)F)cc5)CC4)nc3)CC2)cc1` [Compound 35, N-(1-(4-cyanobenzyl)piperidin-4-yl)-6-(1-(4-(trifluoromethyl)phenyl)piperidin-4-yloxy)nicotinamide] yielded an EC50 of 100 to 500 nM. `O=C(NC1CCNCC1)c1cc2ccc(OC3CCN(c4ccc(OC(F)(F)F)cc4)CC3)cc2o1` [Compound 83, N-(piperidin-4-yl)-6-(1-(4-(trifluoromethoxy)phenyl)piperidin-4-yloxy)benzofuran-2-carboxamide hydrochloride] yielded an EC50 (Table 4, AMPK activation) of 100 to 500 nM.

`FC(F)(F)c1ccc(N2CCC(Oc3ccc4c(c3)CCC4NC3CCN(Cc4ccncc4)CC3)CC2)cc1` (centres unmarked) [Compound 158, 1-(pyridin-4-ylmethyl)-N-(5-(1-(4-(trifluoromethyl)phenyl)piperidin-4-yloxy)-2,3-dihydro-1H-inden-1-yl)piperidin-4-amine] came in with a half-maximal effective concentration (EC50) (Table 6, AMPK activation) of 500 to 1000 nM.

As to `O=C(N[C@@H]1CCN(Cc2cccnc2)C1)c1cc2cc(OC3CCN(c4ccc(C(F)(F)F)cc4)CC3)ccc2o1` [Compound 123, (R)-N-(1-(pyridin-3-ylmethyl)pyrrolidin-3-yl)-5-(1-(4-(trifluoromethyl)phenyl)piperidin-4-yloxy)benzofuran-2-carboxamide], the EC50 (Table 4, AMPK activation) was in the range of 100 to 500 nM. Compound `CC(C)(C)OC(=O)N1CCC(NC(=O)c2ccnc(OC3CCN(c4ccc(C(F)(F)F)cc4)CC3)c2)CC1` [Compound 15, tert-butyl 4-(2-(1-(4-(trifluoromethyl)phenyl)piperidin-4-yloxy)isonicotinamido) piperidine-1-carboxylate] had a 50% effective concentration (EC50) (Table 2, AMPK activation) of 1000 to 5000 nM.

`O=C(NC1CCNCC1)c1cc2cc(OC3CCN(c4ccc(C(F)(F)F)cc4)CC3)ccc2s1` [Compound 150, N-(piperidin-4-yl)-5-(1-(4-(trifluoromethyl)phenyl)piperidin-4-yloxy)benzo[b]thiophene-2-carboxamide] showed a concentration for a half-maximal effect (EC50) (Table 5, AMPK activation) of 1000 to 50000 nM. Take `O=C(N[C@@H]1CCN(Cc2ccncc2)C1)c1ccc(OC2CCN(c3ccc(C(F)(F)F)cc3)CC2)cn1` [Compound 25, (R)-N-(1-(pyridin-4-ylmethyl)pyrrolidin-3-yl)-5-(1-(4-(trifluoromethyl)phenyl)piperidin-4-yloxy)picolinamide]: for the setting “Table 2, AMPK activation”, the EC50 is 100 to 500 nM. The compound `O=C(NC1CCN(Cc2ccc3ccccc3c2)CC1)c1ccc(OC2CCN(c3ccc(C(F)(F)F)cc3)CC2)cn1` [Compound 37, N-(1-(naphthalen-2-ylmethyl)piperidin-4-yl)-5-(1-(4-(trifluoromethyl)phenyl)piperidin-4-yloxy)picolinamide] registered an EC50 (Table 2, AMPK activation) of 500 to 1000 nM.
